This is an account of results in patent US20030181334A1, “Herbicidal method” (priority 2001, published 2003).

The melting point is the temperature of the solid-liquid transition.

The subject of one data set is Amaranthus retroflexus, Abutilon theophrasti, Alopecurus myosuroides, Avena fatua, Brassica rapa and Echinochloa crus-galli. Briefly: Pre-emergence and post-emergence effect on weeds. It is filed as in vivo. The note with it: 500 g/ha or less; pre- or post-emergence application; one or more of the weed species; two weeks after treatment. An excerpt: Pre-Emergence Effect on Weeds Seed of various broad-leaf and grass weed species were sown and compound of formula (I), dissolved in a mixture of acetone and water, was applied at a rate of 500 g/ha or less to the soil surface. The weed species used were Amaranthus retroflexus, Abutilon theophrasti, Alopecurus myosuroides, Avena fatua, Brassica rapa and Echinochloa crus-galli. Post-Emergence Effect on Weeds Seed of the weed species Amaranthus retroflexus, Abutilon theophrasti, Alopecurus myosuroides, Avena fatua, Brassica rapa and Echinochloa crus-galli were sown in soil and grown up to a 1-3 leaves stage. A post-emergence application of compound of formula (I), dissolved in a mixture of acetone and water, was applied at a rate of 500 g/ha or less. Two weeks after treatment in the above test methods, weed control was assessed as a percentage reduction in plant growth, in comparison with untreated control.
`N#Cc1cc(C#N)cc(Oc2cccc(OC(F)(F)C(F)F)c2)c1` [Compound 44, 5-(3-[1,1,2,2-tetrafluoroethoxy]phenoxy)isophthalonitrile]: the “herbicidal activity (weed control assessed as percentage reduction in plant growth in comparison with untreated control)” value is reported as “very good herbicidal activity”.

In the case of `N#Cc1cccc(Oc2cc(C#N)cc(C#N)c2)c1` [Compound 42, 5-(3-cyanophenoxy)isophthalonitrile], the “herbicidal activity (weed control assessed as percentage reduction in plant growth in comparison with untreated control)” value is on record as “very good herbicidal activity”.

Consider `N#Cc1cc(C#N)cc(Oc2cccc(Oc3ccnc(Cl)n3)c2)c1` [Compound 1, 5-[3-(2-chloropyrimidin-4-yloxy)phenoxy]isophthalonitrile], for which the “herbicidal activity (weed control assessed as percentage reduction in plant growth in comparison with untreated control)” value is recorded as “very good herbicidal activity”.

Test system in the next data set: not given
Assay: not given
Settings: not given
As for `N#Cc1cc(C#N)cc(Oc2ccnc(Oc3cc(Cl)cc(Cl)c3)n2)c1` [Compound 84, 5-[2-(3,5-dichlorophenoxy)pyrimidin-4-yloxy]isophthalonitrile], the melting point was 196 °C.

`N#Cc1cc(C#N)cc(Oc2nccc(Oc3cc(Cl)cc(Cl)c3)n2)c1` [Compound 83, 5-[4-(3,5-dichlorophenoxy)pyrimidin-2-yloxy] isophthalonitrile] returned a melting point of 156 °C.

As for `N#Cc1cc(C#N)cc(Oc2cccc(Oc3cc(C#N)cc(C#N)c3)c2)c1` [Compound 90, 5-[3-(3,5-dicyanophenoxy)phenoxy]isophthalonitrile], the melting point is 212 to 213 °C.

The molecule `N#Cc1cc(C#N)cc(Oc2cccc(O)c2)c1` [Compound 49, 5-(3-hydroxyphenoxy)isophthalonitrile] displayed a melting point of 143 °C.
